Structures are written as SMILES.

The IC50 is the concentration that inhibits the measured activity by half. Broadly, the Ki is a dissociation constant, usually derived from enzyme kinetics or from competition with a known ligand.

The target in one experiment is Glycine receptor (Rattus norvegicus, UniProt P22771+P24524+P07727+P20781). The experiment is classed as cell membranes, Wistar, Spinal cord, Membrane. Note: in other assays of this panel Not Active means under 50% inhibition at 10 µM.
A short description of experiment [1]: DRUGMATRIX: GABAA, Flunitrazepam, Central radioligand binding (ligand: [3H] Flunitrazepam). The format is cell membranes, Rattus norvegicus, Wistar, Brain, Membrane. Conditions: Not Active = under 50% inhibition at 10 µM.
The next experiment addresses Substance-P receptor (Homo sapiens, UniProt P25103). The format is cell membranes, CHO, Membrane. The conditions noted are these: cho.
A short description of experiment [2]: DRUGMATRIX: Glutamate, NMDA, Agonism radioligand binding (ligand: [3H] CGP-39653). The experiment is classed as cell membranes, Rattus norvegicus, Wistar, Cerebral cortex, Membrane. The conditions noted are these: Not Active = under 50% inhibition at 10 µM.
Experiment [3] has as its target Prostaglandin G/H synthase 1 (Homo sapiens, UniProt P23219). Briefly: biochemical. The experiment is classed as tissue-based, Platelet. The conditions noted are these: platelet.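 Note: inhibition of COX-1 enzyme activity, with arachidonic acid supplied as substrate; in other assays of this panel Not Active means under 50% inhibition at 10 µM.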
Experiment [4] is described as follows: DRUGMATRIX: Atrial Natriuretic Factor (ANF) radioligand binding (ligand: [125I] ANF (rat)). The format is cell membranes, Cavia porcellus, Dunkin-Hartley, Adrenal gland, Membrane. Conditions: Not Active = under 50% inhibition at 10 µM.
Experiment [5] deals with T1, Muscarinic acetylcholine receptor M2 (Homo sapiens, UniProt P08172).
T1 sequence (P08172 whole entry): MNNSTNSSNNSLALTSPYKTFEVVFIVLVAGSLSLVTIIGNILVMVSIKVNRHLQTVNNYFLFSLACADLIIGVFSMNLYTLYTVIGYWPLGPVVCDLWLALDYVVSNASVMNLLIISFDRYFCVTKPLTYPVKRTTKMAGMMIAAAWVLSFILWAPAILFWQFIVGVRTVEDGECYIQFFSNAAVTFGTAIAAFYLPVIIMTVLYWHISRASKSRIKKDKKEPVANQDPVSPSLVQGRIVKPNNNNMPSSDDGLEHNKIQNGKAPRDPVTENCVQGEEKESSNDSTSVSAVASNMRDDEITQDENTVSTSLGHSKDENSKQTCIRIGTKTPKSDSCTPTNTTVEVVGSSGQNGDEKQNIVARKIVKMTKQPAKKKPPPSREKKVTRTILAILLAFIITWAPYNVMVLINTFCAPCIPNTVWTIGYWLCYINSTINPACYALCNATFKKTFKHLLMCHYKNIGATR
The experiment is classed as cell membranes, CHO-K1, Membrane.

Substance-P receptor, sequence (P25103 whole entry): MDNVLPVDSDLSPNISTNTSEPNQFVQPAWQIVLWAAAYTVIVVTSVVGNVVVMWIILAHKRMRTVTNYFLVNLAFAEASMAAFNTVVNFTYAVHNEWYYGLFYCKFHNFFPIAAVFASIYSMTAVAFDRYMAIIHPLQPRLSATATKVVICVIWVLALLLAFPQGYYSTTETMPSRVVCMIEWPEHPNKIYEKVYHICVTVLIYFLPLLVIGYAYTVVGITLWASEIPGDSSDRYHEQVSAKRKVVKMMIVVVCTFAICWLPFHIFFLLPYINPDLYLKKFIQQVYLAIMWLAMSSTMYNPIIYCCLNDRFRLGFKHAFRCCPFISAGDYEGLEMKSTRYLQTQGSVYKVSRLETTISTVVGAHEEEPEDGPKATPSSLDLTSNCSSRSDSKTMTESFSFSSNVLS
Prostaglandin G/H synthase 1, sequence (P23219 whole entry): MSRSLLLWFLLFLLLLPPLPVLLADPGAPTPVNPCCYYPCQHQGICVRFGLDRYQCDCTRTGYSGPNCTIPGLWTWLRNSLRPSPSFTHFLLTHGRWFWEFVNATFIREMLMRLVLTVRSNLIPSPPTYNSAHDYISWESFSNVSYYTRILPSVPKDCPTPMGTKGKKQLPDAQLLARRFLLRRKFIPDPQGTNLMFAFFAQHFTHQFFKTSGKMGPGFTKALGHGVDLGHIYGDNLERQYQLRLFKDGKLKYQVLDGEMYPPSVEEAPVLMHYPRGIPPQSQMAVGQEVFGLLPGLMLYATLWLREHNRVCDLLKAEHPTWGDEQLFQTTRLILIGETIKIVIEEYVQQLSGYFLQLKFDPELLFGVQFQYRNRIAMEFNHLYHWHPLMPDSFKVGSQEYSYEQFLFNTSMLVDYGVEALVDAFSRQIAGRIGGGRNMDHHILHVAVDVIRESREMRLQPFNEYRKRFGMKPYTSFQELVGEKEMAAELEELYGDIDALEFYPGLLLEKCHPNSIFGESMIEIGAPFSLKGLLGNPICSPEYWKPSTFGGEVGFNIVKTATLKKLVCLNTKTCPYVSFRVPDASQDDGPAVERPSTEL

In the case of `NCCCNCCSP(=O)(O)O` [AMIFOSTINE], the IC50 entry (against Glycine receptor; in experiment [1]; on Substance-P receptor; in experiment [2]; in experiment [3]; in experiment [4]) was “Not Active” each time. In experiment [5] (cho-k1), the IC50 result is on record as “Not Active”. Moreover, the Ki entry in experiment [1], in experiment [2] and in experiment [4] was “Not Active” throughout.

As to `CC(C)c1c(C(=O)Nc2ccccc2)c(-c2ccccc2)c(-c2ccc(F)cc2)n1CC[C@@H](O)C[C@@H](O)CC(=O)O` [ATORVASTATIN], the IC50 entry (against Glycine receptor; in experiment [1]; against Substance-P receptor; in experiment [2]; in experiment [3]; in experiment [4]) was “Not Active” in each case. The 50% inhibitory concentration (IC50) result in experiment [5] (cho-k1) is “Not Active”. Also, the Ki result in experiment [1], in experiment [2] and in experiment [4] was “Not Active” each time.

As to `CC(=O)OC[C@H]1O[C@@H](n2ncc(=O)[nH]c2=O)[C@H](OC(C)=O)[C@@H]1OC(C)=O` [AZARIBINE], the IC50 result (against Glycine receptor; in experiment [1]; on Substance-P receptor; in experiment [2]; in experiment [3]; in experiment [4]) was “Not Active” each time. Also, the IC50 entry in experiment [5] (cho-k1) is given as “Not Active”. Also, the inhibitory constant (Ki) entry in experiment [1], in experiment [2] and in experiment [4] was “Not Active” throughout.

Turning to `C[C@H]1[C@H](NC(=O)/C(=N\OC(C)(C)C(=O)O)c2csc(N)n2)C(=O)N1S(=O)(=O)O` [AZTREONAM], the IC50 entry (against Glycine receptor; in experiment [1]; at Substance-P receptor; in experiment [2]; in experiment [3]; in experiment [4]) was “Not Active” each time. Moreover, in experiment [5] (cho-k1), the IC50 result is on record as “Not Active”. The inhibition constant Ki entry in experiment [1], in experiment [2] and in experiment [4] was “Not Active” throughout.

As for `O=C(O)CCNC(=O)c1ccc(/N=N/c2ccc(O)c(C(=O)O)c2)cc1` [BALSALAZIDE], the IC50 entry (against Glycine receptor; in experiment [1]; against Substance-P receptor; in experiment [2]; in experiment [3]; in experiment [4]) was “Not Active” each time. Besides, the IC50 entry in experiment [5] (cho-k1) is recorded as “Not Active”. For the same compound, the Ki entry in experiment [1], in experiment [2] and in experiment [4] was “Not Active” in each case.

In the case of `COc1cc(OC)c(C(=O)CCCN2CCCC2)c(OC)c1` [BUFLOMEDIL], the IC50 result (on Glycine receptor; in experiment [1]; at Substance-P receptor; in experiment [2]; in experiment [3]; in experiment [4]) was “Not Active” each time. Moreover, the IC50 entry in experiment [5] (cho-k1) is given as “Not Active”. The Ki entry in experiment [1], in experiment [2] and in experiment [4] was “Not Active” throughout.

Turning to `Cn1c(=O)c2c(ncn2C)n(C)c1=O` [CAFFEINE], the IC50 result (on Glycine receptor; in experiment [1]; against Substance-P receptor; in experiment [2]; in experiment [3]; in experiment [4]) was “Not Active” throughout. Further, the 50% inhibitory concentration (IC50) result in experiment [5] (cho-k1) is “Not Active”. For the same compound, the Ki entry in experiment [1], in experiment [2] and in experiment [4] was “Not Active” in each case.

For `ClC(Cl)(Cl)Cl` [CARBON TETRACHLORIDE], the IC50 result (against Glycine receptor; in experiment [1]; against Substance-P receptor; in experiment [2]; in experiment [3]; in experiment [4]) was “Not Active” in each case. In experiment [5] (cho-k1), the half-maximal inhibitory concentration (IC50) result was “Not Active”. In addition, the Ki entry in experiment [1], in experiment [2] and in experiment [4] was “Not Active” throughout.

Turning to `CO/N=C(\C(=O)N[C@@H]1C(=O)N2C(C(=O)O)=C(COC(C)=O)CS[C@H]12)c1csc(N)n1` [CEFOTAXIME], the IC50 entry (at Glycine receptor; in experiment [1]; on Substance-P receptor; in experiment [2]; in experiment [3]; in experiment [4]) was “Not Active” throughout. Moreover, the IC50 entry in experiment [5] (cho-k1) is on record as “Not Active”. The Ki entry in experiment [1], in experiment [2] and in experiment [4] was “Not Active” each time.

For `CNC1=Nc2ccc(Cl)cc2C(c2ccccc2)=[N+]([O-])C1` [CHLORDIAZEPOXIDE], the IC50 entry was “Not Active” against Glycine receptor; 1.43 µM in experiment [1] (read-out: IC50); “Not Active” against Substance-P receptor; “Not Active” in experiment [2]; “Not Active” in experiment [3]; “Not Active” in experiment [4]. In experiment [5] (cho-k1), the half-maximal inhibitory concentration (IC50) result is listed as “Not Active”. Moreover, the Ki in experiment [1] (read-out: Ki) is 1.16 µM; in experiment [2], “Not Active”; in experiment [4] it was “Not Active”.

As to `Cc1cc(O)cc(C)c1Cl` [CHLOROXYLENOL], the IC50 result (against Glycine receptor; in experiment [1]; at Substance-P receptor; in experiment [2]; in experiment [3]; in experiment [4]) was “Not Active” each time. In addition, the IC50 result in experiment [5] (cho-k1) was “Not Active”. Further, the Ki result in experiment [1], in experiment [2] and in experiment [4] was “Not Active” in each case.

On to `CCCNC(=O)NS(=O)(=O)c1ccc(Cl)cc1` [CHLORPROPAMIDE], for which the 50% inhibitory concentration (IC50) result (against Glycine receptor; in experiment [1]; against Substance-P receptor; in experiment [2]; in experiment [3]; in experiment [4]) was “Not Active” throughout. For the same compound, in experiment [5] (cho-k1), the IC50 result is on record as “Not Active”. For the same compound, the Ki result in experiment [1], in experiment [2] and in experiment [4] was “Not Active” throughout.

For `NS(=O)(=O)c1cc(C2(O)NC(=O)c3ccccc32)ccc1Cl` (stereo unspecified) [CHLORTHALIDONE], the IC50 result (on Glycine receptor; in experiment [1]; at Substance-P receptor; in experiment [2]; in experiment [3]; in experiment [4]) was “Not Active” in each case. Also, in experiment [5] (cho-k1), the IC50 entry is recorded as “Not Active”. Further, the inhibition constant (Ki) result in experiment [1], in experiment [2] and in experiment [4] was “Not Active” in each case.

Turning to `O=C(O)CC(O)(CC(=O)O)C(=O)O` [CITRIC ACID], the IC50 result (on Glycine receptor; in experiment [1]; against Substance-P receptor; in experiment [2]; in experiment [3]; in experiment [4]) was “Not Active” each time. The IC50 result in experiment [5] (cho-k1) is “Not Active”. The Ki result in experiment [1], in experiment [2] and in experiment [4] was “Not Active” in each case.

As for `CC(C)NCC(O)c1ccccc1Cl` (stereo unspecified) [CLORPRENALINE], the IC50 entry (at Glycine receptor; in experiment [1]; against Substance-P receptor; in experiment [2]; in experiment [3]; in experiment [4]) was “Not Active” in each case. The IC50 result in experiment [5] (cho-k1) was “Not Active”. For the same compound, the Ki result in experiment [1], in experiment [2] and in experiment [4] was “Not Active” throughout.

On to `CN1CCN(C(c2ccccc2)c2ccccc2)CC1` [CYCLIZINE], for which the IC50 entry (against Glycine receptor; in experiment [1]; at Substance-P receptor; in experiment [2]; in experiment [3]; in experiment [4]) was “Not Active” each time. In addition, in experiment [5] (read-out: IC50), the IC50 turned out to be 1.16 µM. The inhibition constant Ki entry is “Not Active” in experiment [1], “Not Active” in experiment [2], “Not Active” in experiment [4] and 0.412 µM in experiment [5] (read-out: Ki).

As for `CN1C[C@@H]2C[C@H]1CN2c1cc2c(cc1F)c(=O)c(C(=O)O)cn2C1CC1` [DANOFLOXACIN], the IC50 result (at Glycine receptor; in experiment [1]; against Substance-P receptor; in experiment [2]; in experiment [3]; in experiment [4]) was “Not Active” each time. For the same compound, the IC50 entry in experiment [5] (cho-k1) is listed as “Not Active”. The Ki result in experiment [1], in experiment [2] and in experiment [4] was “Not Active” throughout.

For the compound `COc1cccc2c1C(=O)c1c(O)c3c(c(O)c1C2=O)C[C@@](O)(C(C)=O)C[C@@H]3O[C@H]1C[C@H](N)[C@H](O)[C@H](C)O1` [DAUNORUBICIN], the IC50 result (against Glycine receptor; in experiment [1]; against Substance-P receptor; in experiment [2]; in experiment [3]; in experiment [4]) was “Not Active” throughout. Moreover, in experiment [5] (cho-k1), the IC50 entry is “Not Active”. Moreover, the Ki result in experiment [1], in experiment [2] and in experiment [4] was “Not Active” throughout.

As for `O=C(O)c1cc(-c2ccc(F)cc2F)ccc1O` [DIFLUNISAL], the IC50 entry (at Glycine receptor; in experiment [1]; against Substance-P receptor; in experiment [2]; in experiment [3]; in experiment [4]) was “Not Active” each time. The IC50 result in experiment [5] (cho-k1) is “Not Active”. Moreover, the Ki entry in experiment [1], in experiment [2] and in experiment [4] was “Not Active” each time.
